Common to all, as to test: In vitro competitive activity-based protein profiling (gel-based, FP-Rh or HT-01 probe)
What all share (assay type): biochemical

For one assay, the target named is T1, PLA2G7 (Mus musculus, UniProt Q60963).
T1 construct: Proteomes (mouse brain membrane fraction or cell lysates); from tissue; host or cells: mouse brain membrane fraction (or cell lysates, not specified)
T1 sequence (Q60963 22-440): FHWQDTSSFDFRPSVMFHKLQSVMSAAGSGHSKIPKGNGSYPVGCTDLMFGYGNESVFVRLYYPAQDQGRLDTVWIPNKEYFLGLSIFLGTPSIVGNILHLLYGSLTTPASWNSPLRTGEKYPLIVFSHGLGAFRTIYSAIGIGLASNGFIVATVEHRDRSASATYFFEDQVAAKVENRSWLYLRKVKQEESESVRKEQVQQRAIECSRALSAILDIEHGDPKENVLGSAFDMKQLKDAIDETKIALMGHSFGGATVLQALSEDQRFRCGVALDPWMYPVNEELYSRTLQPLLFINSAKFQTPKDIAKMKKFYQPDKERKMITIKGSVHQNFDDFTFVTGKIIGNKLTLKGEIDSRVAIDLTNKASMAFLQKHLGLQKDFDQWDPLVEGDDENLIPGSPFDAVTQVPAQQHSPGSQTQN
As to conditions: for inhibition at 1 µM: 1 μM inhibitor, read-out: % Inhibition at 1 μM, D = PLA2G7; for inhibition at 10 µM: 10 μM inhibitor, read-out: % Inhibition at 10 μM, D = PLA2G7; for IC50: mouse brain membrane fraction or cell lysates, 30 min preincubation at 37° C. In short, it runs like this:
(§1)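 Mouse brain membrane or cell lysate proteomes (1.0 mg/mL) preincubated with inhibitors 30 min at 37° C, then labelled with FP-Rh or HT-01 for 30 min at 37° C. After SDS-PAGE, activity quantified from fluorescent band intensity.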

A further assay deals with T2, MAGL (Mus musculus, UniProt O35678).
T2 construct: Proteomes (mouse brain membrane fraction or cell lysates); from tissue; host or cells: mouse brain membrane fraction (or cell lysates, not specified)
T2 sequence (O35678 1-303): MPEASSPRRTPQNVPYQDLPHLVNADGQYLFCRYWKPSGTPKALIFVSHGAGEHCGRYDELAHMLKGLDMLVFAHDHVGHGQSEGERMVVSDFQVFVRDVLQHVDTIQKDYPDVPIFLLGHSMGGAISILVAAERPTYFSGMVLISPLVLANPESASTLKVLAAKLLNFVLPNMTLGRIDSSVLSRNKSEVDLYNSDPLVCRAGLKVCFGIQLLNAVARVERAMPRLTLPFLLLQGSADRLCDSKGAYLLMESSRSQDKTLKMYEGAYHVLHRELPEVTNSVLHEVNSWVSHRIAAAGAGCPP
To be noted: for inhibition at 1 µM: 1 μM inhibitor; for inhibition at 10 µM: 10 μM inhibitor; for IC50: mouse brain membrane fraction or cell lysates, 30 min preincubation at 37° C., read-out: Mouse (IC50 value, nM) MAGL. In short, it runs like this: as §1

For another assay, the target named is T3, FAAH (Mus musculus, UniProt O08914).
T3 construct: Proteomes (mouse brain membrane fraction or cell lysates); from tissue; host or cells: mouse brain membrane fraction (or cell lysates, not specified)
T3 sequence (O08914 1-579): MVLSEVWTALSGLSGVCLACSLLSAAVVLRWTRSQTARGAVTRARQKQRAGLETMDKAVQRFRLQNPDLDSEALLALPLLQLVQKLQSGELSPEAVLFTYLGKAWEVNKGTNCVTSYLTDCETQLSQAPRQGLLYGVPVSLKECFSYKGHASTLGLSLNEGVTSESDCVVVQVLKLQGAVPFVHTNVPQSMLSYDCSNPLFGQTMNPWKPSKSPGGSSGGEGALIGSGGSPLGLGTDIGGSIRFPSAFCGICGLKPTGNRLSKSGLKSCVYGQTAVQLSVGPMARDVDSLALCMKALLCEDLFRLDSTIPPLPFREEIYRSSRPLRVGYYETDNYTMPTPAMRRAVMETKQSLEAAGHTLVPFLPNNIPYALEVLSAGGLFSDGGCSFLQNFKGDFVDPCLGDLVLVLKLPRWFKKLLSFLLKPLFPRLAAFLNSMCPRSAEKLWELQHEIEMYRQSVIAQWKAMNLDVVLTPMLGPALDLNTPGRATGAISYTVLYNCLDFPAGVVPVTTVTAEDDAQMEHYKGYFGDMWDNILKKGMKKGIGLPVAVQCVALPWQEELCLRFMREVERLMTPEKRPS
As to conditions: for inhibition at 1 µM: 1 μM inhibitor, read-out: % Inhibition at 1 μM, B = FAAH; for inhibition at 10 µM: 10 μM inhibitor, read-out: % Inhibition at 10 μM, B = FAAH; for IC50: mouse brain membrane fraction or cell lysates, 30 min preincubation at 37° C., read-out: Mouse (IC50 value, nM) FAAH. Summed up: as §1

For another assay, the target named is T4, ABHD6 (Mus musculus, UniProt Q8R2Y0).
T4 construct: Proteomes (mouse brain membrane fraction or cell lysates); from tissue; host or cells: mouse brain membrane fraction (or cell lysates, not specified)
T4 sequence (Q8R2Y0 1-336): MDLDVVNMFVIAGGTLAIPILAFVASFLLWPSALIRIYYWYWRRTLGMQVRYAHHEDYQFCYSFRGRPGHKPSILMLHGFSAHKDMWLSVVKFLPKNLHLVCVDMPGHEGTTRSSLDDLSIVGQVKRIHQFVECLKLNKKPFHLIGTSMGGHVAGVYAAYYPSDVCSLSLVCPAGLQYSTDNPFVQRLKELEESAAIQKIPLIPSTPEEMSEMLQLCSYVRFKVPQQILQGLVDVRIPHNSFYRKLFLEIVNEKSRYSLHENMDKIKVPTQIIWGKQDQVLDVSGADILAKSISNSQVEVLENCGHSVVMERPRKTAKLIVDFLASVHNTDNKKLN
As to conditions: for inhibition at 1 µM: 1 μM inhibitor, read-out: % Inhibition at 1 μM, C = ABHD6; for inhibition at 10 µM: 10 μM inhibitor, read-out: % Inhibition at 10 μM, C = ABHD6; for IC50: mouse brain membrane fraction or cell lysates, 30 min preincubation at 37° C., read-out: Mouse (IC50 value, nM) ABHD6. In short, it runs like this: as §1

The structures appear in SMILES notation.

In the case of `COc1ccccc1N1CCN(C(=O)n2cc(C(F)(F)F)cn2)CC1` [Example 233, (4-(2-Methoxyphenyl)piperazin-1-yl)(4-(trifluoromethyl)-1H-pyrazol-1-yl)methanone], the inhibition at 1 µM at PLA2G7, on MAGL, on FAAH and on ABHD6 was > 75% in each case. Besides, the inhibition at 10 µM at PLA2G7, on MAGL, on FAAH and on ABHD6 was > 75% in each case. Besides, the IC50 on PLA2G7, on MAGL, on FAAH and on ABHD6 was < 100 nM throughout.
For the molecule `COc1cccc(N2CCN(C(=O)n3cc(C(F)(F)F)cn3)CC2)c1` [Example 234, (4-(3-Methoxyphenyl)piperazin-1-yl)(4-(trifluoromethyl)-1H-pyrazol-1-yl)methanone], the inhibition at 1 µM at PLA2G7, at MAGL, on FAAH and at ABHD6 was > 75% each time. Further, the inhibition at 10 µM at PLA2G7, at MAGL, on FAAH and at ABHD6 was > 75% each time. In addition, the IC50 at PLA2G7, on MAGL, on FAAH and at ABHD6 was < 100 nM each time.
Regarding `COc1ccc(N2CCN(C(=O)n3cc(C(F)(F)F)cn3)CC2)cc1` [Example 235, (4-(4-Methoxyphenyl)piperazin-1-yl)(4-(trifluoromethyl)-1H-pyrazol-1-yl)methanone], the inhibition at 1 µM on PLA2G7, at MAGL, at FAAH and at ABHD6 was > 75% each time. Moreover, the inhibition at 10 µM on PLA2G7, at MAGL, at FAAH and at ABHD6 was > 75% throughout. The IC50 on PLA2G7, on MAGL, at FAAH and at ABHD6 was < 100 nM each time.
For `O=C(N1CCN(c2ccccc2N2CCOCC2)CC1)n1cc(C(F)(F)F)cn1` [Example 236, (4-(2-Morpholinophenyl)piperazin-1-yl)(4-(trifluoromethyl)-1H-pyrazol-1-yl)methanone], the inhibition at 1 µM at PLA2G7 was > 75%; on MAGL it was > 75%; at FAAH, 25 to 75%; at ABHD6, > 75%. Further, the inhibition at 10 µM at PLA2G7, at MAGL, at FAAH and at ABHD6 was > 75% throughout.
For `O=C(N1CCN(c2cccc(N3CCOCC3)c2)CC1)n1cc(C(F)(F)F)cn1` [Example 237, (4-(3-Morpholinophenyl)piperazin-1-yl)(4-(trifluoromethyl)-1H-pyrazol-1-yl)methanone], the inhibition at 1 µM at PLA2G7, at MAGL, at FAAH and at ABHD6 was > 75% throughout. For the same molecule, the inhibition at 10 µM on PLA2G7, at MAGL, at FAAH and at ABHD6 was > 75% in each case.
Regarding `O=C(N1CCN(c2ccc(N3CCOCC3)cc2)CC1)n1cc(C(F)(F)F)cn1` [Example 238, (4-(4-Morpholinophenyl)piperazin-1-yl)(4-(trifluoromethyl)-1H-pyrazol-1-yl)methanone], the inhibition at 1 µM on PLA2G7, on MAGL, at FAAH and at ABHD6 was > 75% in each case. The inhibition at 10 µM on PLA2G7, at MAGL, on FAAH and on ABHD6 was > 75% each time.
